Patent publication US20240325429A1, “MINOR SPLICEOSOME TARGETING COMPOSITIONS AND THEIR USE IN CANCER TREATMENT” (UNIVERSITÄT BERN, priority 2021, published 2024)

Legend:
Type in all cases: cell-based, human
minor spliceosome (MiS) = experiment: Luciferase minor intron splicing reporter assay
Protocol: (§1) CMV-luc2CP/ARE (major intron splicing reporter), CMV-luc2CP (empty vector backbone control) and luc1CFH4 (minor splicing intron reporter) were a kind gift from Dr. Gideon Dreyfuss (University of Pennsylvania). DNA was amplified via chemical transformation of One Shot Mach1 T1 Phage-Resistant Chemically Competent E. coli cells (Invitrogen, C862003) and Sanger sequenced.
(§2) 24 hours prior analysis cells of each condition were co-transfected with each reporter plasmid and the empty vector backbone plasmid. In short 1.5 ul of P3000 reagent plus 0.5 ug of DNA and 1.5 ul Lipofectamine P300 were each diluted in 25 ul Opti-MEMH medium. Both mixes were pooled and incubated for 20 minutes before the solution was added to the cells. Luciferase expression was measured with the Dual-Glo® Luciferase Assay System (Promega, E2940): media was removed, 100 ul of PLB were added and cells were frozen for two hours at −20 C. After a one hour shaking step 100 ul of LAR substrate was added and Firefly luciferase expression was measured with a Tecan Infinite M200PRO reader. Values were calculated as x-fold of CMV-luc2CP expression and subsequently as the x-fold of the respective reference control.

major spliceosome = experiment: Luciferase major intron splicing reporter assay; conditions: LNCaP and C4-2 cells, long term ADT/ARSi
Protocol: as §1
as §2, with “To determine the minor/major intron splicing rate cells were seeded in white 96 well plate (Huberlab, 7.655 098) (8000/well) and treated according to assay conditions. 24” for “24”

[1] = system: C4-2 cells and enzalutamide-resistant LNCaP (L-rENZ) cells; experiment: Growth curves with siRNA +/- enzalutamide; conditions: CRPC C4-2 and L-rENZ cells; compared with EZH2 plus enzalutamide
Protocol: For growth experiments cells were treated with siRNA and two hours later with 20 uM enzalutamide. Enzalutamide was refreshed 3 days later.
Cells were seeded in a 6 well (400 000) and treated according to assay conditions over night. Cells were then seeded in Poly-L-Lysine coated 96-well plates (8000 cells/well, n=3 per condition) and WCM154 cells were seeded in a collagen-coated 96-well plates (5000 cells/well, n=3 per condition). Remaining cells were used for U6atac KD control via qRT-PCR. Cell viability was determined after 24, 48, 72, and 96 h with a Tecan Infinite M200PRO reader using the CellTiter-Glo® Luminescent Cell Viability Assay according to manufacturer's directions (Promega, G9243). Viability values were calculated as x-fold of cells transfected with siRNA for 0 h. Cell confluence (n=4 per condition) was determined using the Incucyte S3 instrument and the IncuCyte S3 2018B software (Essen Bioscience, Germany). Values were calculated as x-fold of timepoint 0 and then as fold-change in confluency as compared to siScrambled treated controls.

SMILES: COc1ccc(C[C@H]2NC[C@H](O)[C@H]2OC(C)=O)cc1 [anisomycin]
- effect on minor intron splicing (luc-splicing reporter) (minor spliceosome (MiS); LNCaP, C4-2, H660 cells and MSK8, MSK10, MSK16, PM154, PM1262 organoids, p38MAPK activation): only observed in PCa-NE cells and organoids (H660, PM154 and MSK10)

SMILES: C[C@]12CCC(=O)C[C@@H]1CC[C@@H]1[C@@H]2CC[C@]2(C)[C@@H](O)CC[C@@H]12 [dihydrotestosterone]
- MiS activity (luciferase reporter) (minor spliceosome (MiS)): rescued MiS activity to levels observed in L-AR alone

SMILES: CNC(=O)c1ccc(N2C(=S)N(c3ccc(C#N)c(C(F)(F)F)c3)C(=O)C2(C)C)cc1F [enzalutamide]
- MiS activity (minor splicing luc-reporter) (minor spliceosome (MiS); LNCaP and C4-2 cells, long term ADT/ARSi): significant increase in MiS activity
- major splicing (luc-reporter) (major spliceosome): only limited effects
- cell growth / proliferation [1]: increased CRPC growth in resistant cells
